Results as given in patent publication EP4745151A1, “FIBROBLAST ACTIVATION PROTEIN LIGAND AND USE THEREOF” (Jiangsu Hengrui Pharmaceuticals Co., Ltd., priority 2023, dated 2025).
Like-named read-outs stand apart in the source and are kept apart here. Blank lines part the entries; values can stand above or below the molecule they belong to. Numbered stars: 1 amine (or outer) side, 2 acyl side, 3 side chain; on linkers, the order of the positions; unused ones are H or OH. Bridge positions count the residues as written; N and C are the ends. Square brackets hold non-standard residues; d marks the D form. Peptide text beside a SMILES is read from it. * marks the point of attachment. TBMB(SCH2CH2NH-DOTA) = O=C(O)CN1CCN(CC(=O)O)CCN(CC(=O)NCCSCc2cc(C[*:1])cc(C[*:2])c2)CCN(CC(=O)O)CC1; X1 = O=C(O)CN1CCN(CC(=O)O)CCN(CC(=O)NCCSCc2cc(C[*:1])cc(C[*:2])c2)CC1; Phe(2-CF3) = N[C@@H](Cc1ccccc1C(F)(F)F)C(=O)O; Pro(trans-4-F) = O=C(O)[C@@H]1C[C@@H](F)CN1; Phe(3-F) = N[C@@H](Cc1cccc(F)c1)C(=O)O; Phe(4-F) = N[C@@H](Cc1ccc(F)cc1)C(=O)O; Phe(2-F) = N[C@@H](Cc1ccccc1F)C(=O)O; Hyp = O=C(O)[C@@H]1C[C@@H](O)CN1; Hexanoyl = CCCCCC(=O)*; Aib = CC(C)(N)C(=O)O

What was measured:
FAPα = biological target: T1, FAPα (Homo sapiens, UniProt Q12884); test: FAPα enzyme activity test; format: biochemical; details: substrate Z-Gly-Pro-AMC, 37°C
T1 sequence (Q12884 1-760): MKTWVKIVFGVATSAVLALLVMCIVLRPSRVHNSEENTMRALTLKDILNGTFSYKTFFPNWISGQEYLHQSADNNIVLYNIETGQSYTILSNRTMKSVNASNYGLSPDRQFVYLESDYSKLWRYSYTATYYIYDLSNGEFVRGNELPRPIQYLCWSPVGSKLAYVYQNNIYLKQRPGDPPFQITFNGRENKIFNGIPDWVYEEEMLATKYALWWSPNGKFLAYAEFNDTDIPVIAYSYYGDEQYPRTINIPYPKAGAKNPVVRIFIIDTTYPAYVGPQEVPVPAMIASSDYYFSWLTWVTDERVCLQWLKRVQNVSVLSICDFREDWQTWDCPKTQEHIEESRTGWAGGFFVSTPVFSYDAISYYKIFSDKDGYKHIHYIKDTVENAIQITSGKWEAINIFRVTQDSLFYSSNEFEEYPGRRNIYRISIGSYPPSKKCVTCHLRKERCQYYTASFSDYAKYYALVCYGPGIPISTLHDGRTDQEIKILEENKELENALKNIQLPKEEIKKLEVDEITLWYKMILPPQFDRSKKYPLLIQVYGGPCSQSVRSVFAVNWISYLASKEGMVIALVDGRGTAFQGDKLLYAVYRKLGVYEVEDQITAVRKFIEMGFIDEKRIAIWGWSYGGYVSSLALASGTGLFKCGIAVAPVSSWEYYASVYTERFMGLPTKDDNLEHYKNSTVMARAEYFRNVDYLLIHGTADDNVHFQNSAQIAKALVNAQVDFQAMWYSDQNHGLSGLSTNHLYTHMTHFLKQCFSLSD
Protocol: The substrate (Z-Gly-Pro-AMC) was diluted with DMSO to prepare a 0.5 mM stock solution. Before each experiment, the 0.5 mM stock solution was diluted with PBS to 50 µM for later use. The FAPα protein was diluted with PBS to 0.5 ng/µl for later use. […] The test compounds and positive control were subjected to a 5-fold serial dilution with PBS to obtain 8 gradients for later use, with the highest concentration being 10 µM, and the lowest concentration being […]. Test method: 85 µl of the FAPα dilution and 10 µl of the compound dilution were added to a microplate, uniformly mixed and incubated at 37°C for 10 min. Then, 5 µl of 50 µM substrate was added, uniformly mixed and incubated at 37°C for 10 min. The microplate was read on a microplate reader, with an excitation wavelength of 380 nm and an emission wavelength of 465 nm.

in vivo = details: B-NDG, mouse, iv, total radioactivity, Tumour/kidney
U-87 MG cells = details: mouse, in vivo; for Tumour/kidney: B-NDG, iv

IC50 (FAPα): 1.16 nM
SMILES: CCCCCC(=O)N[C@H]1CSCc2cc(CSCCNC(=O)CN3CCN(CC(=O)O)CCN(CC(=O)O)CCN(CC(=O)O)CC3)cc(c2)CSC[C@@H](C(=O)O)NC(=O)[C@H](Cc2ccccc2)NC(=O)[C@H](CCC(N)=O)NC(=O)[C@H]([C@@H](C)O)NC(=O)[C@@H]2C[C@@H](O)CN2C(=O)[C@@H]2CCCN2C(=O)C(C)(C)NC1=O [DOTA-05] (Hexanoyl-C[Aib]P[Hyp]TQFC-OH; linker 1-8 via TBMB(SCH2CH2NH-DOTA))

IC50 (FAPα): 0.45 nM
SMILES: CCCCCC(=O)N[C@H]1CSCc2cc(CSCCNC(=O)CN3CCN(CC(=O)O)CCN(CC(=O)O)CC3)cc(c2)CSC[C@@H](C(=O)O)NC(=O)[C@H](Cc2ccccc2)NC(=O)[C@H](CCC(N)=O)NC(=O)[C@H]([C@@H](C)O)NC(=O)[C@@H]2C[C@@H](O)CN2C(=O)[C@@H]2CCCN2C(=O)C(C)(C)NC1=O [NOTA-05] (Hexanoyl-C[Aib]P[Hyp]TQFC-OH; linker 1-8 via X1)

SMILES: CCCCCC(=O)N[C@H]1CSCc2cc(CSCCNC(=O)CN3CCN(CC(=O)O)CCN(CC(=O)O)CCN(CC(=O)O)CC3)cc(c2)CSC[C@@H](C(=O)O)NC(=O)[C@H](Cc2ccccc2C(F)(F)F)NC(=O)[C@H](CCC(N)=O)NC(=O)[C@H]([C@@H](C)O)NC(=O)[C@@H]2C[C@@H](O)CN2C(=O)[C@@H]2CCCN2C(=O)C(C)(C)NC1=O [DOTA-09] (Hexanoyl-C[Aib]P[Hyp]TQ[Phe(2-CF3)]C-OH; linker 1-8 via TBMB(SCH2CH2NH-DOTA))
IC50 (FAPα): 0.28 nM

SMILES: CCCCCC(=O)N[C@H]1CSCc2cc(CSCCNC(=O)CN3CCN(CC(=O)O)CCN(CC(=O)O)CC3)cc(c2)CSC[C@@H](C(=O)O)NC(=O)[C@H](Cc2ccccc2)NC(=O)[C@H](CCC(N)=O)NC(=O)[C@H]([C@@H](C)O)NC(=O)[C@@H]2CCCN2C(=O)[C@@H]2CCCN2C1=O [NOTA-2286, reference compound]
IC50 (FAPα): 0.59 nM

IC50 (FAPα): 0.93 nM
SMILES: CCCCCC(=O)N[C@H]1CSCc2cc(CSCCNC(=O)CN3CCN(CC(=O)O)CCN(CC(=O)O)CCN(CC(=O)O)CC3)cc(c2)CSC[C@@H](C(=O)O)NC(=O)[C@H](Cc2ccccc2F)NC(=O)[C@H](CCC(N)=O)NC(=O)[C@H]([C@@H](C)O)NC(=O)[C@@H]2C[C@@H](O)CN2C(=O)[C@@H]2CCCN2C(=O)C(C)(C)NC1=O [DOTA-06] (Hexanoyl-C[Aib]P[Hyp]TQ[Phe(2-F)]C-OH; linker 1-8 via TBMB(SCH2CH2NH-DOTA))

IC50 (FAPα): 1.08 nM
SMILES: CCCCCC(=O)N[C@H]1CSCc2cc(CSCCNC(=O)CN3CCN(CC(=O)O)CCN(CC(=O)O)CCN(CC(=O)O)CC3)cc(c2)CSC[C@@H](C(=O)O)NC(=O)[C@H](Cc2ccccc2)NC(=O)[C@H](CCC(N)=O)NC(=O)[C@H]([C@@H](C)O)NC(=O)[C@@H]2C[C@@H](F)CN2C(=O)[C@@H]2CCCN2C(=O)C(C)(C)NC1=O [DOTA-12] (Hexanoyl-C[Aib]P[Pro(trans-4-F)]TQFC-OH; linker 1-8 via TBMB(SCH2CH2NH-DOTA))

SMILES: CCCCCC(=O)N[C@H]1CSCc2cc(CSCCNC(=O)CN3CCN(CC(=O)O)CCN(CC(=O)O)CCN(CC(=O)O)CC3)cc(c2)CSC[C@@H](C(=O)O)NC(=O)[C@H](Cc2ccccc2)NC(=O)[C@H](CCC(N)=O)NC(=O)[C@H]([C@@H](C)O)NC(=O)[C@@H]2CCCN2C(=O)[C@@H]2CCCN2C1=O [^68Ga-FAP-2286, metal not drawn]
tissue to tissue ratio at 1 h (in vivo): 1.56 ± 0.11 | tissue to tissue ratio at 3 h (in vivo): 0.87 ± 0.14

IC50 (FAPα): 1.5 nM
SMILES: CCCCCC(=O)N[C@H]1CSCc2cc(CSCCNC(=O)CN3CCN(CC(=O)O)CCN(CC(=O)O)CCN(CC(=O)O)CC3)cc(c2)CSC[C@@H](C(=O)O)NC(=O)[C@H](Cc2cccc(F)c2)NC(=O)[C@H](CCC(N)=O)NC(=O)[C@H]([C@@H](C)O)NC(=O)[C@@H]2C[C@@H](O)CN2C(=O)[C@@H]2CCCN2C(=O)C(C)(C)NC1=O [DOTA-07] (Hexanoyl-C[Aib]P[Hyp]TQ[Phe(3-F)]C-OH; linker 1-8 via TBMB(SCH2CH2NH-DOTA))

SMILES: CCCCCC(=O)N[C@H]1CSCc2cc(CSCCNC(=O)CN3CCN(CC(=O)O)CCN(CC(=O)O)CCN(CC(=O)O)CC3)cc(c2)CSC[C@@H](C(=O)O)NC(=O)[C@H](Cc2ccccc2)NC(=O)[C@H](CCC(N)=O)NC(=O)[C@H]([C@@H](C)O)NC(=O)[C@@H]2CCCN2C(=O)[C@@H]2CCCN2C1=O [FAP-2286, reference compound]
IC50 (FAPα): 11.7 nM

IC50 (FAPα): 0.088 nM
SMILES: CCCCCC(=O)N[C@H]1CSCc2cc(CSCCNC(=O)CN3CCN(CC(=O)O)CCN(CC(=O)O)CC3)cc(c2)CSC[C@@H](C(=O)O)NC(=O)[C@H](Cc2ccccc2F)NC(=O)[C@H](CCC(N)=O)NC(=O)[C@H]([C@@H](C)O)NC(=O)[C@@H]2C[C@@H](O)CN2C(=O)[C@@H]2CCCN2C(=O)C(C)(C)NC1=O [NOTA-06] (Hexanoyl-C[Aib]P[Hyp]TQ[Phe(2-F)]C-OH; linker 1-8 via X1)

SMILES: CCCCCC(=O)N[C@H]1CSCc2cc(CSCCNC(=O)CN3CCN(CC(=O)O)CCN(CC(=O)O)CCN(CC(=O)O)CC3)cc(c2)CSC[C@@H](C(=O)O)NC(=O)[C@H](Cc2ccccc2C(F)(F)F)NC(=O)[C@H](CCC(N)=O)NC(=O)[C@H]([C@@H](C)O)NC(=O)[C@@H]2C[C@@H](O)CN2C(=O)[C@@H]2CCCN2C(=O)C(C)(C)NC1=O [^68Ga-DOTA-09, metal not drawn] (Hexanoyl-C[Aib]P[Hyp]TQ[Phe(2-CF3)]C-OH; linker 1-8 via TBMB(SCH2CH2NH-DOTA))
tumour uptake compared with control (U-87 MG cells): significantly higher | tumour/kidney ratio compared with control (U-87 MG cells): significantly higher | tumour/kidney uptake ratio compared with control (U-87 MG cells): significantly higher | tissue to tissue ratio at 0.5 h (in vivo): 2.81 ± 0.21 | tissue to tissue ratio at 1.5 h (in vivo): 5.34 ± 0.92

IC50 (FAPα): 0.53 nM
SMILES: CCCCCC(=O)N[C@H]1CSCc2cc(CSCCNC(=O)CN3CCN(CC(=O)O)CCN(CC(=O)O)CCN(CC(=O)O)CC3)cc(c2)CSC[C@@H](C(=O)O)NC(=O)[C@H](Cc2ccc(F)cc2)NC(=O)[C@H](CCC(N)=O)NC(=O)[C@H]([C@@H](C)O)NC(=O)[C@@H]2C[C@@H](O)CN2C(=O)[C@@H]2CCCN2C(=O)C(C)(C)NC1=O [DOTA-08] (Hexanoyl-C[Aib]P[Hyp]TQ[Phe(4-F)]C-OH; linker 1-8 via TBMB(SCH2CH2NH-DOTA))

IC50 (FAPα): 1.09 nM
SMILES: CCCCCC(=O)N[C@H]1CSCc2cc(CSCCNC(=O)CN3CCN(CC(=O)O)CCN(CC(=O)O)CCN(CC(=O)O)CC3)cc(c2)CSC[C@@H](C(=O)O)NC(=O)[C@H](Cc2ccccc2F)NC(=O)[C@H](CCC(N)=O)NC(=O)[C@H]([C@@H](C)O)NC(=O)[C@@H]2C[C@@H](F)CN2C(=O)[C@@H]2CCCN2C(=O)C(C)(C)NC1=O [DOTA-13] (Hexanoyl-C[Aib]P[Pro(trans-4-F)]TQ[Phe(2-F)]C-OH; linker 1-8 via TBMB(SCH2CH2NH-DOTA))

SMILES: CCCCCC(=O)N[C@H]1CSCc2cc(CSCCNC(=O)CN3CCN(CC(=O)O)CCN(CC(=O)O)CC3)cc(c2)CSC[C@@H](C(=O)O)NC(=O)[C@H](Cc2ccccc2)NC(=O)[C@H](CCC(N)=O)NC(=O)[C@H]([C@@H](C)O)NC(=O)[C@@H]2CCCN2C(=O)[C@@H]2CCCN2C1=O [^68Ga-NOTA-2286, metal not drawn, reference compound]
Tumour/kidney (U-87 MG cells; 1.5 h): 1.77±0.31 | Tumour/kidney (U-87 MG cells; 3 h): 2.43±1.04 | tissue to tissue ratio at 0.5 h (in vivo): 1.59 ± 0.55

SMILES: CCCCCC(=O)N[C@H]1CSCc2cc(CSCCNC(=O)CN3CCN(CC(=O)O)CCN(CC(=O)O)CC3)cc(c2)CSC[C@@H](C(=O)O)NC(=O)[C@H](Cc2ccccc2)NC(=O)[C@H](CCC(N)=O)NC(=O)[C@H]([C@@H](C)O)NC(=O)[C@@H]2CCCN2C(=O)[C@@H]2CCCN2C1=O [Al^18F-NOTA-2286, reference compound]
Tumour/kidney (U-87 MG cells; 0.5 h): 2.57±0.09 | Tumour/kidney (U-87 MG cells; 1.5 h): 11.24±1.79 | Tumour/kidney (U-87 MG cells; 3 h): 10.06±1.60
